Results taken from patent US3988466A, “Prevention of gastric lesions” (priority 1973, dated 1976).

Legend:
[1] = tested on: carageenin-induced paw edema in rats; test: Effect of L-glutamine on anti-inflammatory activity of aspirin in rats (Experiment D); assay type: in vivo, male Donryu strain rats
Protocol: As a control, a sixth group is treated with 1% carboxymethylcellulose solution. After one hour, the animals are treated with a phlogistic agent of 0.1 ml of 1% carrageenin solution by subcutaneous injection in a hind paw, according to the method of Yamasaki et al. [Yamasaki, H. et al: Folia Pharm. Jap., 63, 302 (1967)]. Swelling of the paw is measured 5 hours after the administration of the phlogistic agent.

[2] = tested on: acetic acid-induced writhing response in mice; test: Effect of L-glutamine on analgesic activity of aspirin in mice (Experiment C); assay type: in vivo, male dd strain mice; conditions: presence of L-glutamine
Protocol: In this Experiment, 3 groups of male dd strain mice weighing 19-21 g are used.
As a control, the third group is treated only with 1% carboxymethylcellulose solution. After a control period of one hour, the animals are treated with 0.2 ml of 0.7% acetic acid solution in physiological saline by intraperitoneal injection, according to the method of Koster et al. [Koster, R. et al: Fed. Proc., 18, 412 (1959)]. Starting 10 minutes after the administration of acetic acid, the number of writhing reaction occurred in 10 minutes is counted.

experimental ulcers = conditions: induced by stress, pylorus ligation, histamine, reserpine or cortisone; cited from earlier work
[3] = tested on: aspirin-induced gastric lesions in pylorus-ligated rats; test: Effect of L-glutamine on aspirin-induced gastric lesions in pylorus-ligated rats (Experiment 1); assay type: in vivo, male Donryu strain rats; conditions: for Ulcer index / Inhibition: aspirin 100 mg/kg oral; for Ulcer index: 7 hours; for Inhibition: vs control ulcer index
Protocol: In this Experiment, 6 groups of male Donryu strain rats are used. The animals are fasted for 24 hours but water is allowed ad libitum. Under ether anesthesia, the pylorus is ligated according to the standard method of Shay et al. Five groups are treated with graded doses of L-glutamine suspended in 1% carboxymethylcellulose solution by oral administration immediately after the pylorus ligation. A sixth group (control) is treated with 5 ml/kg of 1% carboxymethylcellulose solution alone. […] After a 7-hour interval during which the animals are not allowed feed or water, the animals are killed by an overdose of ether. […] The stomach is removed and slightly inflated by injection of 1% formalin solution through the esophagel junction. […] The stomach is opened along the greater curvature and the length of lesions (dark blue areas against pale blue background) in the glandular portion is measured under a dissecting microscope (10x) provided with a square grid. […] The ulcer index expressed by mm indicates the mean value of the sum of the length of the lesions per animal of each group. The level of significance is calculated according to Student t-test.

[4] = pH of amino acids in 1% carboxymethylcellulose solution; assay type: physicochemical; conditions: 150 mg/ml in 1% carboxymethylcellulose solution
Protocol: The pH values of the amino acids are also determined. The amino acids are separately dissolved or suspended in 1% carboxymethylcellulose solution at a concentration of 150 mg/ml and the pH is measured on an Hitachi pH meter (product of Hitachi Ltd., Japan).

[5] = Effect of L-glutamine on absorption of aspirin in rats (plasma salicylate level; Experiment A); assay type: in vivo, male Wistar strain rats; conditions: L-glutamine administered together with aspirin
Protocol: In this Experiment, 2 groups of male Wistar strain rats weighing about 280-320 g, each consisting of 12 animals are fixed in supine position. Under ether anesthesia, the carotid artery is cannulated for blood sampling. Upon recovery from the anesthesia, one group is treated with 1000 mg/kg of L-glutamine suspended in 1% carboxymethylcellulose solution and the other group (control) with 5 ml/kg of 1% carboxymethylcellulose solution alone, by oral administration. […] The same treatments are applied also to 2 groups of pylorus-ligated rats, each consisting of 5 animals.
The blood sample is centrifuged at 8,000 r.p.m. for 5 minutes and 20 μl of plasma is collected for the measurement of salicylate concentration. Salicylate concentration of plasma is determined according to the method of Lever & Powell [Lever, M. and Powell, J. C.: Biochem. Med., 7, 203 (1973)].

[6] = tested on: indomethacin-induced gastric lesions in pylorus-ligated rats; test: Effect of L-glutamine on indomethacin-induced gastric lesions in pylorus-ligated rats (Experiment 2); assay type: in vivo, male Donryu strain rats; conditions: for Ulcer index / Inhibition: indomethacin 20 mg/kg i.p.; for Inhibition: vs control ulcer index
Protocol: In this Experiment, 8 groups of male Donryu strain rats are used. The animals are fasted for 24 hours but water is allowed ad libitum. Under ether anesthesia, the pylorus is ligated according to the standard method of Shay et al. Seven groups are treated with graded doses of L-glutamine suspended in 1% carboxymethylcellulose solution by oral administration immediately after the pylorus ligation. An eighth group (control) is treated with 5 ml/kg of 1% carboxymethylcellulose solution alone. Following a control period of 10 minutes, the animals are treated with 20 mg/kg of indomethacin suspended in a trace amount of Tween 80 (trade name of Atlas Chemical Industries Inc., U.S.A.) by intraperitoneal injection. Thereafter, the animals are treated in the same manner as described in Experiment 1 and the length of lesions is measured.

[7] = tested on: aspirin-induced gastric lesions in pylorus-ligated rats; test: Effect of various amino acids on aspirin-induced gastric lesions in pylorus-ligated rats (Experiment 3); assay type: in vivo, male Donryu strain rats
[8] = L-glutamine 1000 mg/kg oral, 5 hours after phlogistic agent

Compound: NC(=O)CC[C@H](N)C(=O)O [L-glutamine]
- Suppression ratio [1, 8]: 5.4%
- Swelling ratio [1, 8]: 117.2±4.7%
- influence on anti-inflammatory activity of aspirin ([1]; presence of L-glutamine): not substantially influenced
- influence on analgesic activity of aspirin [2]: not substantially influenced
- prevention or treatment of certain experimental ulcers (experimental ulcers): effective for the prevention or treatment of certain experimental ulcers
- Ulcer index ([3]; L-glutamine 62.5 mg/kg oral): 57.6±5.6 mm
- Inhibition ([3]; L-glutamine 62.5 mg/kg oral): -5.0%
- gastric lesions preventive effect ([3]; L-glutamine 62.5 mg/kg, aspirin 100 mg/kg): no such effect is observed
- Ulcer index ([3]; L-glutamine 125 mg/kg oral): 27.9±4.7 mm
- Inhibition ([3]; L-glutamine 125 mg/kg oral): 49.0%
- Ulcer index ([3]; L-glutamine 250 mg/kg oral): 15.0±3.4 mm
- Inhibition ([3]; L-glutamine 250 mg/kg oral): 72.6%
- Ulcer index ([3]; L-glutamine 500 mg/kg oral): 18.0±3.1 mm
- Inhibition ([3]; L-glutamine 500 mg/kg oral): 67.1%
- Ulcer index ([3]; L-glutamine 1,000 mg/kg oral): 3.5±1.5 mm
- Inhibition ([3]; L-glutamine 1,000 mg/kg oral): 93.6%
- animals with stomachs quite clear and no mucosal defect ([3]; L-glutamine 1000 mg/kg, aspirin 100 mg/kg): three out of 12
- Amino acid pH [4]: 6.65
- effect on absorption of aspirin (in words) [5]: does not inhibit the absorption of aspirin
- effect on the prevention of indomethacin-induced gastric lesions ([6]; L-glutamine 15.6 mg/kg): no effect
- Ulcer index ([6]; L-glutamine 15.6 mg/kg oral): 12.1±3.5 mm
- Inhibition ([6]; L-glutamine 15.6 mg/kg oral): 3.2%
- inhibition of gastric lesions (in words) ([6]; L-glutamine 31.3 mg/kg): fairly inhibits the gastric lesions but the inhibition is not significant
- Ulcer index ([6]; L-glutamine 31.3 mg/kg oral): 5.0±1.1 mm
- Inhibition ([6]; L-glutamine 31.3 mg/kg oral): 60.0%
- prevention of indomethacin-induced gastric lesions ([6]; L-glutamine 62.5 mg/kg - 1000 mg/kg): effective for the prevention of indomethacin-induced gastric lesions
- Ulcer index ([6]; L-glutamine 62.5 mg/kg oral): 2.6±0.8 mm
- Inhibition ([6]; L-glutamine 62.5 mg/kg oral): 79.2%
- Ulcer index ([6]; L-glutamine 125 mg/kg oral): 3.9±1.5 mm
- Inhibition ([6]; L-glutamine 125 mg/kg oral): 68.8%
- Ulcer index ([6]; L-glutamine 250 mg/kg oral): 2.4±0.4 mm
- Inhibition ([6]; L-glutamine 250 mg/kg oral): 80.8%
- Ulcer index ([6]; L-glutamine 500 mg/kg oral): 1.6±0.7 mm
- Inhibition ([6]; L-glutamine 500 mg/kg oral): 87.2%
- Ulcer index ([6]; L-glutamine 1,000 mg/kg oral): 0.5±0.3 mm
- Inhibition ([6]; L-glutamine 1,000 mg/kg oral): 96.0%
- inhibition in vivo at 750 mg/kg ([7]; Rattus norvegicus, po, read-out: Inhibition): 87.8%
- Ulcer index ([7]; amino acid 750 mg/kg oral, aspirin by gastric intubation): 5.5±2.0 mm
